Data taken from patent US12570603B2, “FABP4/5 inhibitors, methods of use and methods of making” (Novius Therapeutics, LLC, priority 2021, dated 2026).

How the values were obtained:
PPARδ = assay: Transactivation assay, PPRE luciferase reporter in COS-7 cells; type: cell-based; conditions: 5 μM, COS7 cells, FIG. 36A
Protocol: COS-7 were cultured in 6-well plates and co-transfected with either a luciferase reporter driven by 3 copies of a PPRE and expression vector for either PPARδ, PPARα or PPARγ together with a vector harboring cDNA for β-galactosidase, serving as a transfection control. To test whether FABP4 or FABP5 mediate activation of their cognate receptors PPARγ and PPARδ, respectively, cells were also co-transfected with a plasmid harboring sequence of either FABP4 or FABP5. 18 h post-transfection, cells were placed in a serum-free medium and treated with agonist/compound. 18 h. later, cells were lysed, luciferase activity was assayed (Promega, WI, USA) and corrected for transfection efficiency by the activity of β-galactosidase.
COS-7 were cultured in 6-well plates and co-transfected with either a luciferase reporter driven by 3 copies of a PPRE and expression vector for either PPARδ, PPARα or PPARγ together with a vector harboring cDNA for β-galactosidase, serving as a transfection control. 18 h. post-transfection, cells were placed in a serum-free medium and treated with agonist/compound. 18 h. later, cells were lysed, luciferase activity was assayed (Promega, WI, USA) and corrected for transfection efficiency by the activity of β-galactosidase.

MB-231 cells = assay: Proliferation assay (Incucyte confluency, 4 days); type: cell-based; conditions: MB-231, serial dilution
Protocol: (§1) COS-7, MDA-MB-231, HepG2, LX-2, 3T3-L1, NPG, and MCF7 were cultured in Dulbecco's modified Eagle's medium (DMEM) supplemented with 10% fetal bovine serum (Invitrogen Life Sciences, Carlsbad, CA). MDA-MB-157 and MB-549 cells were cultured in L-Glutamine containing RPMI medium supplemented with 10% fetal calf serum (Invitrogen Life Sciences, Carlsbad, CA). For proliferation assays, 2000 cells were plated in each well of 96-well plate. The next day cells were treated with compounds and incubated in Incucyte for 4 days. Images taken every 4 hours for the duration of the time were analyzed to calculate percentage of confluency in response to the treatments.
(§2) The TNBC line MB-231 was used to calculate the efficacy of compounds B104, B106, B110, B116, and B118 in inhibiting proliferation of the cancer cells. Cells were treated with serial dilution of the compounds or the known FABP5/7 inhibitor SBF-I26 and proliferation was measured in Incucyte by calculating percentage of confluency every 4 hours over 4 days. […] The EC50 for each compound was calculated by fitting the percentage of inhibition vs. the logarithmic transformation of the used concentrations (FIG. 37B and FIG. 37D). Additionally, the effect of B116 and B118 was also tested on proliferation of the human TNBC lines MDA-MB-157 (FIG. 37E) and MB-549 (FIG. 37F).

[1] = test system: NPG human neuroblastoma cells; assay: Neuroblastoma proliferation assay with or without all-trans retinoic acid; type: cell-based; conditions: for proliferation of neuroblastoma cells in combination with atRA: combined with atRA; for proliferation of neuroblastoma cells: compound alone, 4 days
Protocol: as §1
Activation of PPARβ by atRA shifts the signaling of this vitamin from its cognate receptor RAR that is known to have anti-carcinogenic activities in multiple cancers to the pro-carcinogenic PPARβ. […] Accordingly, NB, human NPG cells were used to test the effect of FABP5 inhibitors on cells' proliferation in combination with atRA. Cells were treated with either B104 or B108 in the presence or absence of atRA.

HepG2 cells = assay: Lipid uptake assay, oleic acid, Nile Red (steatosis model); type: cell-based, human; conditions: OA 1 mM 24 h, compound 4 h before
Protocol: 2) Hepg2 cells: 5000 cells were plated in 96-well plate. The next day cells were treated with tested compounds for 4 hours and then treated with 1 mM oleic acid for additional 24 hours. Cells were then stained with Nile Red and Dapi and lipid content was quantified using Cytation5 (Agilent).
2) Hepg2 cells: 5000 cells were plated in 96-well plate. The next day cells were treated with tested compounds for 4 hours and then treated with 1 mM oleic acid for additional 24 hours. Cells were then stained with Nile Red and Dapi and lipid content was quantified.

MB-549 = assay: Proliferation assay (Incucyte confluency, 4 days); type: cell-based, human; conditions: MB-549, 4 days
Protocol: as §1, §2

MDA-MB-157 = assay: Proliferation assay (Incucyte confluency, 4 days); type: cell-based, human; conditions: MDA-MB-157, 4 days
Protocol: as §1, §2

FABP4 = molecular target: T1, FABP4 (Homo sapiens, UniProt P15090); assay: FABP binding assay by fluorescence titration (ANS competition); conditions: fluorescence competition with ANS; read-out: FABP4 binding
T1 construct: made in house
Protocol: (§3) This example illustrates a binding assay study used to determine the binding affinity of the various inhibitor compounds disclosed herein with the various FABPs: FABP3, FABP4, FABP5 and FABP7.
(§4) Binding assays for FABP3, FABP4, FABP5 and FABP7 were carried out by fluorescence titrations. FABPs were bacterially expressed and purified and the equilibrium dissociation constants (Kd) that characterize their interactions with different compounds were measured by fluorescence competition assays. The method entails two steps as described in e.g., Lin, Q. et al., “Ligand selectivity of the peroxisome proliferator-activated receptor alpha,” Biochemistry 38, 185-190, doi:10.1021/bi9816094 bi9816094 [pii](1999). In the first step, Kd for the association of the protein with the fluorescent fatty acid probe ANS was measured. Protein ([…]) was titrated with ANS from a concentrated solution in DMSO. Ligand binding was monitored by following the increase in the fluorescence of the ligand upon binding to the protein, and Kd for the association of ANS with the each FABP was computed from titration curves as described in e.g., Norris, A. W. & Li, E., “Fluorometric titration of the CRABPs,” Methods Mol Biol 89, 123-139 (1998)). Kds for binding of non-fluorescent ligands were then measured by monitoring their ability to displace ANS in the binding pocket of the protein. Each FABP was pre-complexed with ANS at 1:1 molar ratio and titrated with the different compounds whose binding was reflected by a decrease in probe fluorescence. Kds were extracted from the EC50 of the competition curve and the measured Kd for ANS.
(§5) Binding assays for FABP3, FABP4, FABP5 and FABP7 were carried out by fluorescence titrations as described in Example 16.

FABP5 = molecular target: T2, FABP5 (Homo sapiens, UniProt Q01469); assay: as above; conditions: fluorescence competition with ANS; read-out: FABP5 binding
T2 construct: made in house
Protocol: as §3, §4, §5

T1 sequence (P15090 whole entry, species assumed): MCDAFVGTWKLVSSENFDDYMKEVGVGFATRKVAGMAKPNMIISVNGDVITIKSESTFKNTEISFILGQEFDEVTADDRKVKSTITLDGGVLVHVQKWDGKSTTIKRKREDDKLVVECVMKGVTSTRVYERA
T2 sequence (Q01469 whole entry, species assumed): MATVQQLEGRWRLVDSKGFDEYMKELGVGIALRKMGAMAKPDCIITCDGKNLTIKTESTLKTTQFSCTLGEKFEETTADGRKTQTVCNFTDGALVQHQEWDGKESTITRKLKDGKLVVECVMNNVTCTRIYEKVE

Row | SMILES | activation of transcription by PPARδ (PPARδ) | suppression of growth of TNBC cells compared with SBF-I26 (MB-231 cells) | proliferation of neuroblastoma cells in combination with atRA [1] | proliferation of neuroblastoma cells [1] | uptake of lipid into hepatic cells (Nile Red) (HepG2 cells) | proliferation (MB-549) | proliferation (MDA-MB-157) | Kd (FABP4) | Kd (FABP5)
1 | CC(C)Oc1cc(NC(=O)CC2(CC(=O)O)CCCC2)c(Cl)cc1Cl [Compound B118, 2-(1-(2-((2,4-dichloro-5-isopropoxyphenyl)amino)-2-oxoethyl)cyclopentyl)acetic acid] | do not Activate Transcription | Suppress Growth of TNBC Cells More Effectively than the Commercially Available Inhibitor SBF-I26 | sensitize cells to all-trans retinoic acid treatments | inhibit growth of neuroblastoma | markedly inhibited | inhibited proliferation of both TNBC lines | inhibited proliferation of both TNBC lines | 78 nM | 2 nM
2 | CC(C)Oc1cc(NC(=O)CC(C)(C)CC(=O)O)c(Cl)cc1Cl [Compound B116, 5-((2,4-dichloro-5-isopropoxyphenyl)amino)-3,3-dimethyl-5-oxopentanoic acid] | do not Activate Transcription | Suppress Growth of TNBC Cells More Effectively than the Commercially Available Inhibitor SBF-I26 | sensitize cells to all-trans retinoic acid treatments | inhibit growth of neuroblastoma | markedly inhibited | inhibited proliferation of both TNBC lines | inhibited proliferation of both TNBC lines | 90 nM | 3 nM
